From patent publication US11684610B2, “Pharmaceutical composition including 1,2-naphthoquinone derivative compound for prevention or treatment of solid cancers or blood cancers” (YUNGJIN PHARM. CO., LTD., priority 2018, dated 2023)

How the values were obtained:
[1] = test system: KG1α cells; test: Apoptosis or cell necrosis in KG1α cells, FACS (Annexin-V/PI) and western blot; type: cell-based, human; conditions: 0-2 μM, 24 hours, FIG. 2
Protocol: (§1) Cell death was typically known as apoptosis or cell necrosis. Thus, in order to confirm whether the death of acute leukemia cells induced by the compound 1 of the present invention was due to apoptosis or cell necrosis, fluorescence activated cell sorting (FACS) and western blot were performed.
(§2) First, in order to conduct FACS, KG1α cells or HL60 cells cultured in […] were inoculated in a 6-well plate at 1×10^7 cells/well, and for the stabilization of cells, the cells were cultured in an incubator at 37° C. and 5% CO2 for 16 hours or more. Subsequently, the compound 1 was treated at concentrations of 0, 0.1, 0.5, 1 and 2 μM, respectively, and cultured for 24 hours, and then the cells were recovered and washed with cold PBS. Only 1×10^6 cells were taken and resuspended with PBS, and then stained with Annexin-V (green fluorescence), which increases during apoptosis, and Pi (propidium iodide, red fluorescence), which […]. The degree of the two indicators were quantified by FACS, the FACS results for KG1α cells are shown in FIG. 2A, and the FACS results for HL60 cells are shown in FIG. 3A.
(§3) Next, in order to perform western blot, KG1α cells or HL60 cells cultured in Example 2-1 were inoculated into a 6-well plate at 1×10^7 cells/well. In order to stabilize the cells, the cells were cultured for 16 hours or more in an incubator at 37° C. and 5% CO2. […]

[2] = test system: HL60 cells; test: Apoptosis or cell necrosis in HL60 cells, FACS (Annexin-V/PI) and western blot; type: cell-based, human; conditions: 0-2 μM, 24 hours, FIG. 3
Protocol: as §1, §2, §3

CC(C)c1nc2c([nH]1)C(=O)C(=O)c1ccccc1-2 [compound 1]
apoptosis or cell necrosis, KG1α cells [1]: died due to apoptosis
apoptosis or cell necrosis, HL60 cells [2]: both apoptosis and cell necrosis occurred
